Measured values taken from article PMC3577712 (PLoS ONE, 2013).

Legend:
[1] = system: Influenza A/TW/70058/09 (H1N1); test: microbe, parasite or virus in culture; assay type: cell-based; conditions: H1N1, read-out: EC50, viral plaque reduction assay
[2] = system: Influenza A/TW/70066/09 (H1N1); test: microbe, parasite or virus in culture; assay type: cell-based; conditions: H1N1, read-out: EC50, viral plaque reduction assay

Structure (SMILES): Nc1c(S(=O)(=O)O)cc(Nc2cccc(S(=O)(=O)CCOS(=O)(=O)O)c2)c2c1C(=O)c1ccccc1C2=O [RB19, Remazol Brilliant Blue R]
- EC50 [1]: 9.8 µM
- EC50 [2]: 11.9 µM
